The target of assay [1] is T1, TANK binding kinase (TBK1) (Homo sapiens, UniProt Q9UHD2).
T1 sequence (Q9UHD2 1-729): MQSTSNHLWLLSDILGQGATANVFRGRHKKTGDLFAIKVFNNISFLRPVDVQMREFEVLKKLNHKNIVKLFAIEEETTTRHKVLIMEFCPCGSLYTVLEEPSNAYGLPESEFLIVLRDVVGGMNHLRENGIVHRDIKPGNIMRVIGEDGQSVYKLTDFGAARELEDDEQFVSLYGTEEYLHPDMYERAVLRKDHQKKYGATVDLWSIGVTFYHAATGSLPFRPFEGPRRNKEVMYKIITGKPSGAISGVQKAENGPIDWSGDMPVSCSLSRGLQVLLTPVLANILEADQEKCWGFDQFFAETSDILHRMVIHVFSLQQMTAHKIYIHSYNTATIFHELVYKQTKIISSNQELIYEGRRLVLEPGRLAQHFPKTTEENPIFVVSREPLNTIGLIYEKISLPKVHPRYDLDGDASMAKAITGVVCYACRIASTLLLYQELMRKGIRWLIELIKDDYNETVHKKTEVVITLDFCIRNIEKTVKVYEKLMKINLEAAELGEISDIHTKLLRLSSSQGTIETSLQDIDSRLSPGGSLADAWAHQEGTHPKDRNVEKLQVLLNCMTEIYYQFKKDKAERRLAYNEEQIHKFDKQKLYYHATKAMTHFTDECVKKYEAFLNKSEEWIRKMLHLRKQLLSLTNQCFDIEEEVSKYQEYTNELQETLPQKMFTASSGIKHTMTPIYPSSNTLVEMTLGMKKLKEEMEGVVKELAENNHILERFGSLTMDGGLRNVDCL
Nature of the assay: TBK1 enzyme assay (384-well Flashplate kinase assay). It counts as biochemical. To be noted: 10 μM ATP, 120 Min at 30° C. The method, then: The kinase assay is performed as 384-well Flashplate assay (for e.g. Topcount measurement.
0.6 nM TANK binding kinase (TBK1), 800 nM biotinylated MELK-derived peptide (Biotin-Ah-Ah-[…]) and 10 μM ATP (spiked with 0.25 μCi ^33P-ATP/well) are incubated in a total volume of 50 μl (10 mM MOPS, 10 mM Mg-acetat, 0.1 mM EGTA, 1 mM DTT, 0.02% Brij35, 0.1% BSA, pH 7.5) with or without test compound for 120 Min at 30° C. The reaction is stopped with 25 μl 200 mM EDTA. After 30 Min at room temperature the liquid is removed and each well washed thrice with 100 μl 0.9% sodium chloride solution. Nonspecific reaction is determined in presence of 100 nM Staurosporine. Radioactivity is measured in a Topcount (PerkinElmer). Results (e.g. IC50-values) are calculated with program tools provided by the IT-department (e.g. AssayExplorer, Symyx).

The target in the next assay is T2, IKKε (Homo sapiens, UniProt Q14164).
T2 sequence (Q14164 1-716): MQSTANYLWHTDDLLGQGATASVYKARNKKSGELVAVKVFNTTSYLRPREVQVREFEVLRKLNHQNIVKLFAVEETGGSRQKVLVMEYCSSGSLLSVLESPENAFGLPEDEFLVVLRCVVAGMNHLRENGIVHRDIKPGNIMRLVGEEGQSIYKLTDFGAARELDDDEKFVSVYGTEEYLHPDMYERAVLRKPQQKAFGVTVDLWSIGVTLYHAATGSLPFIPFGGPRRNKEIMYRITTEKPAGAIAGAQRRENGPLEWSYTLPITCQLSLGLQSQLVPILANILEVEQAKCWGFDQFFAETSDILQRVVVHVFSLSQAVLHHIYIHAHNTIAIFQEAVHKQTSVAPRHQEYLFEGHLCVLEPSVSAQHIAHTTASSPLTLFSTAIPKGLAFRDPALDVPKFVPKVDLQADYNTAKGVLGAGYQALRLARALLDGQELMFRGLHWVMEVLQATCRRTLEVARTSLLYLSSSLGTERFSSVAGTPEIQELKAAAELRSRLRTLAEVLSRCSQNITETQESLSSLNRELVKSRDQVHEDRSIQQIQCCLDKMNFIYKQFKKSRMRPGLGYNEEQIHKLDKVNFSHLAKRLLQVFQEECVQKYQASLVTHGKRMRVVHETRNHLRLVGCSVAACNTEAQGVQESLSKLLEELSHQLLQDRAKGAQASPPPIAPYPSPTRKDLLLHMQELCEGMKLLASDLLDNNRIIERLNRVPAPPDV
Nature of the assay: IKKε kinase assay (384-well Flashplate). The format is biochemical. As to conditions: 10 μM ATP, 2 hours at 30° C.; read-out: IKKε enzyme assay IC50. The method, then: The kinase assay is performed either as 384-well Flashplate assay (for e.g. Topcount measurement).
1 nM IKKε, 800 nM biotinylated IκBα(19-42) peptide (Biotin-C6-C6-[…]) and 10 μM ATP (spiked with 0.3 μCi ^33P-ATP/well) are incubated in a total volume of 50 μl (10 mM MOPS, 10 mM Mg-acetat, 0.1 mM EGTA, 1 mM Dithiothreitol, 0.02% Brij35, 0.1% BSA, 0.1% BioStab, pH 7.5) with or without test compound for 2 hours at 30° C. The reaction is stopped with 25 μl 200 mM EDTA. After 30 Min at room temperature the liquid is removed and each well washed thrice with 100 μl 0.9% sodium chloride solution. […] Radioactivity is measured with Topcount (PerkinElmer). Results (e.g. IC50-values) are calculated with program tools provided by the IT-department (e.g. AssayExplorer, Symyx).

34 compounds from US9045493B2, “Furo[3,2-b]- and thieno[3,2-b]pyridin derivatives” (Merck Patent GmbH, priority 2012, dated 2015) can be followed below.

Structures are written as SMILES. pIC50: −log10 of the molar value.

For orientation: pIC50 means the IC50 on a negative log10 scale, so that one unit is a factor of ten. As to `CN1CCN(C(=O)c2ccc(-c3cc4nccc(-c5ccc(OC6CCOC6)c(C#N)c5)c4o3)cc2)CC1` (centres unmarked) [Compound A42], the pIC50 (in assay [1]; on IKKε) was more than 6.52 in each case.

With `N#Cc1cc(-c2ccnc3cc(-c4ccc(C(=O)N5CCNCC5)cc4)oc23)ccc1OC1CCOC1` (centres unmarked) [Compound A43], the pIC50 (in assay [1]; at IKKε) was more than 6.52 each time.

Consider `CN(CCO)C(=O)c1ccc(-c2cc3nccc(-c4ccc(OC5CCOCC5)c(C#N)c4)c3s2)cc1` [Compound A44], for which the pIC50 (in assay [1]; at IKKε) was more than 6.52 in each case.

As to `CN1CCN(C(=O)c2ccc(-c3cc4nccc(-c5ccc(OC6CCOCC6)c(C#N)c5)c4s3)cc2)CC1` [Compound A45], the negative-log IC50 (pIC50) (in assay [1]; on IKKε) was more than 6.52 in each case.

On to `Cn1cc(-c2cc3nccc(-c4ccc(OC5CCOCC5)c(C#N)c4)c3o2)cn1` [Compound A46], for which the pIC50 (in assay [1]; at IKKε) was more than 6.52 throughout.

As to `N#Cc1cc(-c2ccnc3cc(-c4ccc(CN5CCOCC5)s4)oc23)ccc1OC1CCOCC1` [Compound A47], the pIC50 (in assay [1]; at IKKε) was more than 6.52 throughout.

As to `N#Cc1cc(-c2ccnc3cc(-c4cnn(CCN5CCOCC5)c4)oc23)ccc1OC1CCOCC1` [Compound A48], the negative-log IC50 (pIC50) (in assay [1]; at IKKε) was more than 6.52 throughout.

For the compound `Cc1ccc(-c2cc3nccc(-c4ccc(OC5CCOCC5)c(C#N)c4)c3o2)o1` [Compound A49], the negative-log IC50 (pIC50) (in assay [1]; on IKKε) was more than 6.52 each time.

Regarding `COc1cc(-c2cc3nccc(-c4ccc(OCC5CC5)c(C#N)c4)c3o2)ccc1C(=O)N1CCNCC1` [Compound A50], the pIC50 (in assay [1]; on IKKε) was more than 6.52 in each case.

In the case of `CCN(CCN(C)C)C(=O)c1ccc(-c2cc3nccc(-c4ccc(OC5CCOCC5)c(C#N)c4)c3s2)cc1OC` [Compound A51], the pIC50 (in assay [1]; at IKKε) was more than 6.52 in each case.

With `COc1cc(-c2cc3nccc(-c4ccc(OC5CCOCC5)c(C#N)c4)c3s2)ccc1C(=O)N1CCNCC1` [Compound A52], the pIC50 (in assay [1]; on IKKε) was more than 6.52 in each case.

On to `N#Cc1cc(-c2ccnc3cc(-c4ccc(C(=O)N5CCNCC5)cc4)sc23)ccc1OC1CCOCC1` [Compound A53], for which the pIC50 (in assay [1]; on IKKε) was more than 6.52 throughout.

`N#Cc1cc(-c2ccnc3cc(-c4cnn(CCCO)c4)oc23)ccc1OC1CCOCC1` [Compound A54]: the pIC50 (in assay [1]; on IKKε) was more than 6.52 throughout.

For the compound `Cc1occc1-c1cc2nccc(-c3ccc(OC4CCOCC4)c(C#N)c3)c2o1` [Compound A55], the pIC50 is 5.52 to 6.52 in assay [1] and more than 6.52 at IKKε.

Consider `N#Cc1cc(-c2ccnc3cc(-c4ccc(N5CCOCC5)nc4)oc23)ccc1OC1CCOCC1` [Compound A56], for which the pIC50 (in assay [1]; on IKKε) was more than 6.52 in each case.

Regarding `N#Cc1cc(-c2ccnc3cc(-c4cnc5ccccc5c4)oc23)ccc1OC1CCOCC1` [Compound A57], the values for the pIC50 (in assay [1]; at IKKε) were 4.30 to 5.52 and 5.52 to 6.52, respectively.

In the case of `N#Cc1cc(-c2ccnc3cc(-c4cccc5[nH]ccc45)oc23)ccc1OC1CCOCC1` [Compound A58], the negative logarithm of the IC50 (pIC50) (in assay [1]; at IKKε) was more than 6.52 throughout.

Consider `CC(CO)(CCl)COc1ccc(-c2ccnc3cc(-c4ccc(C(=O)N5CCNCC5)cc4)oc23)cc1C#N` (centres unmarked) [Compound A59], for which the pIC50 (in assay [1]; at IKKε) was more than 6.52 throughout.

For the compound `CC(CO)(CO)COc1ccc(-c2ccnc3cc(-c4ccc(C(=O)N5CCNCC5)cc4)oc23)cc1C#N` [Compound A60], the pIC50 was 5.52 to 6.52 in assay [1] and more than 6.52 on IKKε.

Take `CN1CCN(C(=O)c2ccc(-c3cc4nccc(-c5ccc(OCC6(C)COC6)c(C#N)c5)c4o3)cc2)CC1` [Compound A61]: the pIC50 (in assay [1]; on IKKε) was more than 6.52 each time.

On to `CN(CCO)C(=O)c1ccc(-c2cc3nccc(-c4ccc(OCC5(C)COC5)c(C#N)c4)c3o2)cc1` [Compound A62], for which the pIC50 (in assay [1]; on IKKε) was more than 6.52 each time.

Regarding `CN(CCO)C(=O)c1ccc(-c2cc3nccc(-c4ccc(OC5CCOC5)c(C#N)c4)c3o2)cc1` (centres unmarked) [Compound A63], the pIC50 (in assay [1]; at IKKε) was more than 6.52 each time.

For `CCOc1ncccc1-c1cc2nccc(-c3ccc(OC4CCOCC4)c(C#N)c3)c2o1` [Compound A64], the pIC50 (in assay [1]; at IKKε) was more than 6.52 throughout.

Take `N#Cc1cc(-c2ccnc3cc(-c4cncc(C(=O)N5CCOCC5)c4)oc23)ccc1OC1CCOCC1` [Compound A65]: the pIC50 (in assay [1]; on IKKε) was more than 6.52 in each case.

`COc1cncc(-c2cc3nccc(-c4ccc(OC5CCOCC5)c(C#N)c4)c3o2)c1` [Compound A66]: the pIC50 in assay [1] is 5.52 to 6.52; at IKKε, more than 6.52.

As to `N#Cc1cc(-c2ccnc3cc(-c4cnn(C5CCN(CCO)CC5)c4)oc23)ccc1OC1CCOCC1` [Compound A67], the pIC50 (in assay [1]; at IKKε) was more than 6.52 throughout.

Turning to `COc1cc(-c2cc3nccc(-c4ccc(OC5CCOC5)c(C#N)c4)c3o2)ccc1C(=O)N1CCNCC1` (centres unmarked) [Compound A68], the pIC50 (in assay [1]; at IKKε) was more than 6.52 in each case.

Consider `N#Cc1cc(-c2ccnc3cc(-c4cnn(C5CCN(CCCO)CC5)c4)oc23)ccc1OC1CCOCC1` [Compound A69], for which the pIC50 (in assay [1]; on IKKε) was more than 6.52 throughout.

With `CS(=O)(=O)c1cncc(-c2cc3nccc(-c4ccc(OC5CCOCC5)c(C#N)c4)c3o2)c1` [Compound A70], the pIC50 (in assay [1]; at IKKε) was 5.52 to 6.52 in each case.

Turning to `N#Cc1cc(-c2ccnc3cc(-c4ccc5cn[nH]c5c4)oc23)ccc1OC1CCOCC1` [Compound A71], the pIC50 is 5.52 to 6.52 in assay [1] and more than 6.52 at IKKε.

Take `N#Cc1cc(-c2ccnc3cc(-c4ccc(C(=O)N5CCNCC5)cc4)oc23)ccc1N1CCCC1` [Compound A72]: the pIC50 (in assay [1]; at IKKε) was more than 6.52 in each case.

Take `N#Cc1cc(-c2ccnc3cc(-c4ccc(C(=O)N5CCNCC5)cc4)oc23)ccc1N1CCOCC1` [Compound A73]: the negative-log IC50 (pIC50) (in assay [1]; on IKKε) was more than 6.52 throughout.

In the case of `CN1CCN(C(=O)c2ccc(-c3cc4nccc(-c5ccc(N6CCCC6)c(C#N)c5)c4o3)cc2)CC1` [Compound A74], the pIC50 (in assay [1]; on IKKε) was more than 6.52 throughout.

Consider `CN1CCN(C(=O)c2ccc(-c3cc4nccc(-c5ccc(N6CCOCC6)c(C#N)c5)c4o3)cc2)CC1` [Compound A76], for which the pIC50 (in assay [1]; on IKKε) was more than 6.52 in each case.
